{
  "source": "patent US20080090898A1",
  "about": "“Boosting immunity” (Mars, Incorporated, priority 2006, published 2008)",
  "key": {"[1]": {"tested_on": "CD8 T cells", "assay": "Cytokine production of isolated CD8 T cells activated with anti CD3", "type": "cell-based, human", "method": "CD4+ and CD8+ cells were isolated by positive selection. Briefly, 10×10^7 PBMC cells in 90 μl were incubated with 10 μl of either anti-CD4+ or CD8+ magnetic reagent and incubated at 4° C. for a half hour. The cells were then separated by magnetic cell sorting using a Miltenyi Biotec system, were counted and diluted to a concentration of 2×10^6 cells/ml with BioWhittaker X Vivo. Autologous plasma from the subject was added to a concentration of 1% by volume. A 96 well plate was treated with antihuman-CD3 in PBS (BD Biosciences) at a concentration of 0.5 μg/ml for 4 hours. After the 4 hour incubation, the plate was washed 4 times with PBS. Purified CD4+ or CD8+ cells were added to each well along with various concentrations of the individual test compounds or controls. The cultures were then incubated at 37° C. for 1 day and supernatants were harvested and stored at −80° C. Cytokine profiles were determined using a BD Cytometric Bead Array Human Inflammation KIT (BD Biosciences, San Diego, Calif.). […] Wash buffer (300 μl) was added and samples immediately analyzed on the flow cytometer after vortexing. Known positive and negative samples and including a standard curve were included with each assay and all samples analyzed in triplicate. […] Cells were resuspended in 1.0 ml PBS/BSA and analyzed on the flow cytometer."}, "[2]": {"tested_on": "CD4 T cells", "assay": "Cytokine production of isolated CD4 T cells activated with anti CD3", "type": "cell-based, human", "method": "CD4+ and CD8+ cells were isolated by positive selection. Briefly, 10×10^7 PBMC cells in 90 μl were incubated with 10 μl of either anti-CD4+ or CD8+ magnetic reagent and incubated at 4° C. for a half hour. The cells were then separated by magnetic cell sorting using a Miltenyi Biotec system, were counted and diluted to a concentration of 2×10^6 cells/ml with BioWhittaker X Vivo. Autologous plasma from the subject was added to a concentration of 1% by volume. A 96 well plate was treated with antihuman-CD3 in PBS (BD Biosciences) at a concentration of 0.5 μg/ml for 4 hours. After the 4 hour incubation, the plate was washed 4 times with PBS. Purified CD4+ or CD8+ cells were added to each well along with various concentrations of the individual test compounds or controls. The cultures were then incubated at 37° C. for 1 day and supernatants were harvested and stored at −80° C. Cytokine profiles were determined using a BD Cytometric Bead Array Human Inflammation KIT (BD Biosciences, San Diego, Calif.). Briefly, 50 μl of culture supernates and standards were added to 100 μl of capture beads and detection reagent. Tubes were incubated for 3 hours at room temperature, washed with 1 ml of wash buffer and centrifuged prior to collection of the supernate. Wash buffer (300 μl) was added and samples immediately analyzed on the flow cytometer after vortexing. Known positive and negative samples and including a standard curve were included with each assay and all samples analyzed in triplicate. In addition, cultured cells (1×10^6) were washed in PBS with 0.1% bovine serum albumin (PBS/BSA), resuspended in 100 μl PBS/BSA, and incubated with anti-human CD3, CD19, CD69 and CD83 antibody for 1 hour at 4° C. Cells were resuspended in 1.0 ml PBS/BSA and analyzed on the flow cytometer."}},
  "data": [
    {"smiles": "COc1cc([C@H]2Oc3cc(O)cc(O)c3C[C@H]2O)ccc1O", "note": "[3′-O-methyl-(−)-epicatechin]", "values": [
      {"measurement": "IFN-γ amounts over the media controls", "setting": "[1]", "value": "significantly higher amounts"},
      {"measurement": "IFN-γ levels over media control and (−)-epicatechin treated cells", "setting": "[2]", "value": "significantly higher levels"},
      {"measurement": "IL-10 levels over media control and (−)-epicatechin treated cells", "setting": "[2]", "value": "significantly higher levels"},
      {"measurement": "TNF-α levels over media control and (−)-epicatechin treated cells", "setting": "[2]", "value": "significantly higher levels"}
    ]}
  ]
}
